Values of other authors in patent US7019016B2, “NMDA NR2B antagonists for treatment” (Pfizer Inc, priority 2000, dated 2006).

Legend:
[1] = target: NMDA receptors comprised of NR1/NR2B subunits (Homo sapiens, UniProt Q05586+Q13224); conditions: NR1/NR2B subunits compared to NR1/NR2A, NR2C, or NR2D subunits
[2] = animal models of pain perception

Sequence of NMDA receptors comprised of NR1/NR2B subunits (Q13224 27-1484, other chains not shown): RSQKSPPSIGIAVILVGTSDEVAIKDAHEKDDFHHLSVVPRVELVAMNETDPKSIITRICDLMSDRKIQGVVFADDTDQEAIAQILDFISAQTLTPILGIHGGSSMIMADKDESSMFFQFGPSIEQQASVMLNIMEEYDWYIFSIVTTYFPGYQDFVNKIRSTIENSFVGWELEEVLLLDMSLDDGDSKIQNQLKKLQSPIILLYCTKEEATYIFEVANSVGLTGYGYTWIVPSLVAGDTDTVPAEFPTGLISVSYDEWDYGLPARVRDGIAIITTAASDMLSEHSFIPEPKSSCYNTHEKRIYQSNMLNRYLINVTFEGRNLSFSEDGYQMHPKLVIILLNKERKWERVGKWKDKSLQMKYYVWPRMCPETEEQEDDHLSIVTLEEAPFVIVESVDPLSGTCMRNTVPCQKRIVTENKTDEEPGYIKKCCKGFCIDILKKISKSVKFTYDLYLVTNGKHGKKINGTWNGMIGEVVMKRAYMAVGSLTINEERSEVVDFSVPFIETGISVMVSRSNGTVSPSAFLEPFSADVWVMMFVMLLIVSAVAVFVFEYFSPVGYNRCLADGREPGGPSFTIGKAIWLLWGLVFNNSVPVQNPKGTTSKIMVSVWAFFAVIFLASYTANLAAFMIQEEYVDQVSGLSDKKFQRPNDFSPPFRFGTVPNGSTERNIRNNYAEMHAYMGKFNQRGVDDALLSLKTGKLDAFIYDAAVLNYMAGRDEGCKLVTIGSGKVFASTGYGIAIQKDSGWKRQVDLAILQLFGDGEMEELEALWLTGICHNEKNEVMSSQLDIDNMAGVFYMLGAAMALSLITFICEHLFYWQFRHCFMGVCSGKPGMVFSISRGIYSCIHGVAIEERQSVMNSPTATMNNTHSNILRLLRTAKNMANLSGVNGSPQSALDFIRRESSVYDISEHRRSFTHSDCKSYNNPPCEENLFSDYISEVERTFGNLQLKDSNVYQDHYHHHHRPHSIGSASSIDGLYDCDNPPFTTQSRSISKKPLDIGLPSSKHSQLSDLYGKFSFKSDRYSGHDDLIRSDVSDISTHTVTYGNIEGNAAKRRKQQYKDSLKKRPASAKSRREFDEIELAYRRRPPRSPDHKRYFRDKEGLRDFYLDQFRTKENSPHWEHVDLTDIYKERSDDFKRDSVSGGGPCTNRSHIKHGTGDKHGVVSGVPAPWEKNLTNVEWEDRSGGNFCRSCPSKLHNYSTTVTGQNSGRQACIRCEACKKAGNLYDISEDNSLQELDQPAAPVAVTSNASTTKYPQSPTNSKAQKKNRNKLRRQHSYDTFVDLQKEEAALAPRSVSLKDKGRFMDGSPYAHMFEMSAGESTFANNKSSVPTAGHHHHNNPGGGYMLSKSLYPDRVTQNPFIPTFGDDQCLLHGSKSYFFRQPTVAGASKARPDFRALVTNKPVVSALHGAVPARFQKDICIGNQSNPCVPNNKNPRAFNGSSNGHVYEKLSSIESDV

## CC(C(O)c1ccc(O)cc1)N1CCC(Cc2ccccc2)CC1 (centres unmarked) [ifenprodil]
[1]
  blockade of ion current through NMDA receptors: more potent and efficacious
[2]
  analgesic activity: significant analgesic activity
